ChEMBL document CHEMBL4393697, “Lipophilic efficient phenylthiazoles with potent undecaprenyl pyrophosphatase inhibitory activity” (Eur J Med Chem, 2019)

Assays:
Staphylococcus aureus [1] = assay: Resistance index, ratio of MIC for antibacterial activity against methicillin-resistant Staphylococcus aureus USA400 treated over 1 passage to MIC for antibacterial activity against methicillin-resistant Staphylococcus aureus USA400 treated for 18 to 20 hrs by broth microdilution assay; type: functional
Staphylococcus aureus [2] = assay: Resistance index, ratio of MIC for antibacterial activity against methicillin-resistant Staphylococcus aureus USA400 treated repeatedly over 9 passages to MIC for antibacterial activity against methicillin-resistant Staphylococcus aureus USA400 treated for 18 to 20 hrs by broth microdilution assay; type: functional

Compound: CO[C@H]1/C=C/O[C@@]2(C)Oc3c(C)c(O)c4c(O)c(c(/C=N/N5CCN(C)CC5)c(O)c4c3C2=O)NC(=O)/C(C)=C\C=C\[C@H](C)[C@H](O)[C@@H](C)[C@@H](O)[C@@H](C)[C@H](OC(C)=O)[C@@H]1C [RIFAMPIN]
- Ratio (Staphylococcus aureus [1]): 29
- Ratio (Staphylococcus aureus [2]): >500000
